What was measured:
Test in all cases: relative viability (nuclei count vs DMSO), 5 days (fraction); higher = more cells survive
AZ505 + Foretinib = compound: C1CCC(CC1)N(CCNCCC2=C3C(=C(C=C2)O)NC(=O)CO3)C(=O)CCNCCC4=CC(=C(C=C4)Cl)Cl [AZ505] + COc1cc2c(Oc3ccc(NC(=O)C4(C(=O)Nc5ccc(F)cc5)CC4)cc3F)ccnc2cc1OCCCN1CCOCC1 [Foretinib] (partner 0.25 µM)
Summary of the method: (§1)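 Five library-drug doses in √10 steps were combined with a fixed anchor-drug dose, or a single drug was given alone, by pin tool to lung cancer cell lines in 1536-well plates the day after seeding. Nuclei were stained and counted after 5 days. Relative viability is the nuclei count in treated wells over that in vehicle wells, taken as the median of duplicate plates.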

AZ505 + Alpelisib = compound: C1CCC(CC1)N(CCNCCC2=C3C(=C(C=C2)O)NC(=O)CO3)C(=O)CCNCCC4=CC(=C(C=C4)Cl)Cl [AZ505] + Cc1nc(NC(=O)N2CCC[C@H]2C(N)=O)sc1-c1ccnc(C(C)(C)C(F)(F)F)c1 [Alpelisib] (partner 2 µM)
Summary of the method: as §1

AZ505 + Vorinostat = compound: C1CCC(CC1)N(CCNCCC2=C3C(=C(C=C2)O)NC(=O)CO3)C(=O)CCNCCC4=CC(=C(C=C4)Cl)Cl [AZ505] + O=C(CCCCCCC(=O)Nc1ccccc1)NO [Vorinostat] (partner 1 µM)
Summary of the method: as §1

Dactolisib + Vorinostat = compound: Cn1c(=O)n(-c2ccc(C(C)(C)C#N)cc2)c2c3cc(-c4cnc5ccccc5c4)ccc3ncc21 [Dactolisib] + O=C(CCCCCCC(=O)Nc1ccccc1)NO [Vorinostat] (partner 1 µM)
Summary of the method: as §1

Cell Line: UMC-11
- relative viability (AZ505 + Foretinib; first compound 0.08 µM): 0.975
- relative viability (AZ505 + Foretinib; first compound 0.253 µM): 1.15
- relative viability (AZ505 + Foretinib; first compound 0.8 µM): 0.922
- relative viability (AZ505 + Foretinib; first compound 2.53 µM): 1.09
- relative viability (AZ505 + Foretinib; first compound 8 µM): 1.11
- relative viability (AZ505 + Alpelisib; first compound 0.08 µM): 0.936
- relative viability (AZ505 + Alpelisib; first compound 0.253 µM): 1.13
- relative viability (AZ505 + Alpelisib; first compound 0.8 µM): 0.899
- relative viability (AZ505 + Alpelisib; first compound 2.53 µM): 0.827
- relative viability (AZ505 + Alpelisib; first compound 8 µM): 1.04
- relative viability (AZ505 + Vorinostat; first compound 0.08 µM): 0.371
- relative viability (AZ505 + Vorinostat; first compound 0.253 µM): 0.433
- relative viability (AZ505 + Vorinostat; first compound 0.8 µM): 0.367
- relative viability (AZ505 + Vorinostat; first compound 2.53 µM): 0.434
- relative viability (AZ505 + Vorinostat; first compound 8 µM): 0.397
- relative viability (Dactolisib + Vorinostat; first compound 0.002 µM): 0.407
- relative viability (Dactolisib + Vorinostat; first compound 0.006325 µM): 0.392
- relative viability (Dactolisib + Vorinostat; first compound 0.02 µM): 0.245
- relative viability (Dactolisib + Vorinostat; first compound 0.06325 µM): 0.235
- relative viability (Dactolisib + Vorinostat; first compound 0.2 µM): 0.175

Source: the supplement of paper PMC10307832
